# Assays:
# Format in all cases: in vivo
# rice (Oryza sativa) = test: Test D flooded paddy test, visual plant response rating; conditions: 250 g ai/ha, scale 0 to 100 (0 no effect, 100 complete control), 13 to 15 d
# Procedure, shortened: (§1)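 Plants were grown to the 2-leaf stage, pots flooded to 3 cm above soil, and compound applied directly into the paddy water, with the depth held throughout. After 13 to 15 d in a greenhouse, response was rated visually against untreated controls on a 0–100 scale (0 no effect, 100 complete control).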
# [1] = system: barnyardgrass (Echinochloa crus-galli); test: as above; conditions: 250 g ai/ha, scale 0 to 100 (0 no effect, 100 complete control), 13 to 15 d
# Procedure, shortened: as §1
# [2] = system: duck salad (Heteranthera limosa); test: as above; conditions: 250 g ai/ha, scale 0 to 100 (0 no effect, 100 complete control), 13 to 15 d
# Procedure, shortened: as §1
# [3] = system: sedge umbrella (small-flower umbrella sedge, Cyperus difformis); test: as above; conditions: 250 g ai/ha, scale 0 to 100 (0 no effect, 100 complete control), 13 to 15 d
# Procedure, shortened: as §1
# kochia (Bassia scoparia) [4] = test: Test C preemergence, visual plant response rating
# Procedure, shortened: (§2)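 Compounds in a non-phytotoxic solvent with surfactant were applied as a directed soil spray preemergence or to 2–10 cm, one- to two-leaf plants postemergence, in loam–sand soil. After about 10 d in a greenhouse, injury was visually rated against untreated controls on a 0–100 scale (100 = complete control).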
# [5] = system: ragweed (common ragweed, Ambrosia artemisiifolia); test: Test C preemergence, visual plant response rating
# Procedure, shortened: as §2
# [6] = system: foxtail, giant (giant foxtail, Setaria faberi); test: Test C preemergence, visual plant response rating
# Procedure, shortened: as §2
# [7] = system: barnyardgrass (Echinochloa crus-galli); test: Test C preemergence, visual plant response rating
# Procedure, shortened: as §2
# [8] = system: Italian ryegrass (Lolium mutiflorum); test: Test C preemergence, visual plant response rating
# Procedure, shortened: as §2
# [9] = system: pigweed (Amaranthus retroflexus); test: Test C preemergence, visual plant response rating
# Procedure, shortened: as §2
# kochia (Bassia scoparia) [10] = test: Test C postemergence, visual plant response rating
# Procedure, shortened: as §2
# [11] = system: wheat (Triticum aestivum); test: Test C postemergence, visual plant response rating
# Procedure, shortened: as §2
# [12] = system: blackgrass (Alopecurus myosuroides); test: Test C postemergence, visual plant response rating
# Procedure, shortened: as §2
# [13] = system: ragweed (common ragweed, Ambrosia artemisiifolia); test: Test C postemergence, visual plant response rating
# Procedure, shortened: as §2
# [14] = system: foxtail, giant (giant foxtail, Setaria faberi); test: Test C postemergence, visual plant response rating
# Procedure, shortened: as §2
# corn (Zea mays) = test: Test C postemergence, visual plant response rating
# Procedure, shortened: as §2
# [15] = system: barnyardgrass (Echinochloa crus-galli); test: Test C postemergence, visual plant response rating
# Procedure, shortened: as §2
# [16] = system: Italian ryegrass (Lolium mutiflorum); test: Test C postemergence, visual plant response rating
# Procedure, shortened: as §2
# [17] = system: pigweed (Amaranthus retroflexus); test: Test C postemergence, visual plant response rating
# Procedure, shortened: as §2
# [18] = system: galium (catchweed bedstraw, Galium aparine); test: Test C postemergence, visual plant response rating
# Procedure, shortened: as §2
# [19] = Test C, 31 g ai/ha, 0 is no effect, 100 is complete control
# [20] = Test C, 125 g ai/ha, 0 is no effect, 100 is complete control
# [21] = Test C, postemergence, 125 g ai/ha
Structure (SMILES),"Plant response rating, Rice (Flood) (rice (Oryza sativa))","Plant response rating, Barnyardgrass (Flood) [1]","Plant response rating, Ducksalad (Flood) [2]","Plant response rating, Sedge, Umbrella (Flood) [3]",Kochia plant response rating (0 to 100 scale) (kochia (Bassia scoparia) [4]; [19]),"Ragweed plant response rating (0 to 100 scale) [5, 19]","Foxtail, Giant plant response rating (0 to 100 scale) [6, 19]","Barnyardgrass plant response rating (0 to 100 scale) [7, 19]","Ryegrass, Italian plant response rating (0 to 100 scale) [8, 19]","Pigweed plant response rating (0 to 100 scale) [9, 19]","Kochia plant response rating (0 to 100 scale) (kochia (Bassia scoparia) [10]; Postemergence, 31 g ai/ha)",Kochia plant response rating (0 to 100 scale) (kochia (Bassia scoparia) [10]; [21]),"Wheat plant response rating (0 to 100 scale) ([11]; Postemergence, 31 g ai/ha)","Wheat plant response rating (0 to 100 scale) [11, 21]","Blackgrass plant response rating (0 to 100 scale) ([12]; Postemergence, 31 g ai/ha)","Blackgrass plant response rating (0 to 100 scale) [12, 21]","Ragweed plant response rating (0 to 100 scale) ([13]; Postemergence, 31 g ai/ha)","Ragweed plant response rating (0 to 100 scale) [13, 21]","Foxtail, Giant plant response rating (0 to 100 scale) ([14]; Postemergence, 31 g ai/ha)","Foxtail, Giant plant response rating (0 to 100 scale) [14, 21]",other results
CON=C(c1cccc(OC)c1)c1c(O)c(C)nn(C)c1=O [Compound 204],0,0,0,0,0,0,0,0,0,0,0,10,0,0,0,0,0,0,0,0,"Kochia plant response rating (0 to 100 scale) (kochia (Bassia scoparia) [4]; [20]): 0; Ragweed plant response rating (0 to 100 scale) [5, 20]: 0; Foxtail, Giant plant response rating (0 to 100 scale) [6, 20]: 0; Barnyardgrass plant response rating (0 to 100 scale) [7, 20]: 0; Ryegrass, Italian plant response rating (0 to 100 scale) [8, 20]: 0; Pigweed plant response rating (0 to 100 scale) [9, 20]: 0; Corn plant response rating (0 to 100 scale) (corn (Zea mays); Postemergence, 31 g ai/ha): 0; Corn plant response rating (0 to 100 scale) (corn (Zea mays); [21]): 0; Barnyardgrass plant response rating (0 to 100 scale) ([15]; Postemergence, 31 g ai/ha): 0; Barnyardgrass plant response rating (0 to 100 scale) [15, 21]: 0; Ryegrass, Italian plant response rating (0 to 100 scale) ([16]; Postemergence, 31 g ai/ha): 0; Ryegrass, Italian plant response rating (0 to 100 scale) [16, 21]: 0; Pigweed plant response rating (0 to 100 scale) ([17]; Postemergence, 31 g ai/ha): 0; Pigweed plant response rating (0 to 100 scale) [17, 21]: 10; Galium plant response rating (0 to 100 scale) ([18]; Postemergence, 31 g ai/ha): 10; Galium plant response rating (0 to 100 scale) [18, 21]: 40"
C#CCO/N=C(/c1ccc(F)c(Cl)c1)c1c(O)c(C)nn(C)c1=O [Compound 229],0,0,0,0,0,0,10,0,20,10,0,0,30,60,50,0,10,20,10,40,"Kochia plant response rating (0 to 100 scale) (kochia (Bassia scoparia) [4]; [20]): 0; Ragweed plant response rating (0 to 100 scale) [5, 20]: 0; Foxtail, Giant plant response rating (0 to 100 scale) [6, 20]: 30; Barnyardgrass plant response rating (0 to 100 scale) [7, 20]: 30; Ryegrass, Italian plant response rating (0 to 100 scale) [8, 20]: 90; Pigweed plant response rating (0 to 100 scale) [9, 20]: 40; Corn plant response rating (0 to 100 scale) (corn (Zea mays); Postemergence, 31 g ai/ha): 0; Corn plant response rating (0 to 100 scale) (corn (Zea mays); [21]): 40; Barnyardgrass plant response rating (0 to 100 scale) ([15]; Postemergence, 31 g ai/ha): 0; Barnyardgrass plant response rating (0 to 100 scale) [15, 21]: 30; Ryegrass, Italian plant response rating (0 to 100 scale) ([16]; Postemergence, 31 g ai/ha): 40; Ryegrass, Italian plant response rating (0 to 100 scale) [16, 21]: 70; Pigweed plant response rating (0 to 100 scale) ([17]; Postemergence, 31 g ai/ha): 20; Pigweed plant response rating (0 to 100 scale) [17, 21]: 50; Galium plant response rating (0 to 100 scale) ([18]; Postemergence, 31 g ai/ha): 60; Galium plant response rating (0 to 100 scale) [18, 21]: 80"
C#CCO/N=C(\c1ccc(Cl)c(Cl)c1)c1c(O)c(C)nn(C)c1=O [Compound 166],0,0,0,0,0,0,0,0,10,0,30,40,0,60,0,20,20,30,10,30,"Kochia plant response rating (0 to 100 scale) (kochia (Bassia scoparia) [4]; 125 g ai/ha): 80; Ragweed plant response rating (0 to 100 scale) ([5]; 125 g ai/ha): 10; Foxtail, Giant plant response rating (0 to 100 scale) ([6]; 125 g ai/ha): 60; Barnyardgrass plant response rating (0 to 100 scale) ([7]; 125 g ai/ha): 50; Ryegrass, Italian plant response rating (0 to 100 scale) ([8]; 125 g ai/ha): 60; Pigweed plant response rating (0 to 100 scale) ([9]; 125 g ai/ha): 50; Corn plant response rating (0 to 100 scale) (corn (Zea mays); Postemergence, 31 g ai/ha): 0; Corn plant response rating (0 to 100 scale) (corn (Zea mays); [21]): 20; Barnyardgrass plant response rating (0 to 100 scale) ([15]; Postemergence, 31 g ai/ha): 20; Barnyardgrass plant response rating (0 to 100 scale) [15, 21]: 30; Ryegrass, Italian plant response rating (0 to 100 scale) ([16]; Postemergence, 31 g ai/ha): 0; Ryegrass, Italian plant response rating (0 to 100 scale) [16, 21]: 80; Pigweed plant response rating (0 to 100 scale) ([17]; Postemergence, 31 g ai/ha): 30; Pigweed plant response rating (0 to 100 scale) [17, 21]: 50; Galium plant response rating (0 to 100 scale) ([18]; Postemergence, 31 g ai/ha): 50; Galium plant response rating (0 to 100 scale) [18, 21]: 80"
CON=C(c1cc(Cl)cc(Cl)c1Cl)c1c(O)c(C)nn(C)c1=O [Compound 213],40,70,70,90,20,70,60,70,70,100,60,70,40,60,30,80,70,80,70,80,"Kochia plant response rating (0 to 100 scale) (kochia (Bassia scoparia) [4]; [20]): 80; Ragweed plant response rating (0 to 100 scale) [5, 20]: 100; Foxtail, Giant plant response rating (0 to 100 scale) [6, 20]: 80; Barnyardgrass plant response rating (0 to 100 scale) [7, 20]: 90; Ryegrass, Italian plant response rating (0 to 100 scale) [8, 20]: 100; Pigweed plant response rating (0 to 100 scale) [9, 20]: 100; Corn plant response rating (0 to 100 scale) (corn (Zea mays); Postemergence, 31 g ai/ha): 20; Corn plant response rating (0 to 100 scale) (corn (Zea mays); [21]): 40; Barnyardgrass plant response rating (0 to 100 scale) ([15]; Postemergence, 31 g ai/ha): 80; Barnyardgrass plant response rating (0 to 100 scale) [15, 21]: 80; Ryegrass, Italian plant response rating (0 to 100 scale) ([16]; Postemergence, 31 g ai/ha): 90; Ryegrass, Italian plant response rating (0 to 100 scale) [16, 21]: 100; Pigweed plant response rating (0 to 100 scale) ([17]; Postemergence, 31 g ai/ha): 80; Pigweed plant response rating (0 to 100 scale) [17, 21]: 90; Galium plant response rating (0 to 100 scale) ([18]; Postemergence, 31 g ai/ha): 90; Galium plant response rating (0 to 100 scale) [18, 21]: 90"
